Source: ChEMBL document CHEMBL3351429, “Phenyl substituted 4-hydroxypyridazin-3(2H)-ones and 5-hydroxypyrimidin-4(3H)-ones: inhibitors of influenza A endonuclease” (J Med Chem, 2014)

Assay: Inhibition of influenza A virus H1N1 endonuclease (1 to 204 residues) expressed in Escherichia coli BL21 (RIL) using (6-FAM)-TGGCAATATCAGCTCCACA(MGBNFQ) single-stranded DNA probe by fluorimetry

Row | Compound | IC50 [nM]
1 | O=c1[nH]cc(-c2ccc(F)cc2)cc1O | 730
2 | O=c1[nH]c(-c2ccc(F)cc2)ccc1O | 430
3 | O=c1[nH]cc(-c2ccc(F)cc2)[nH]c1=O | 59000
4 | O=c1[nH]cnc(-c2ccc(F)cc2)c1O | > 193000
5 | O=c1[nH]c(-c2ccc(F)cc2)ncc1O | 580
6 | O=c1[nH]c(-c2cccc(F)c2)ncc1O | 1560
7 | O=c1[nH]c(-c2ccccc2F)ncc1O | 1670
8 | O=c1[nH]c(-c2ccc(-c3ccccc3)cc2)ncc1O | 2240
9 | O=c1[nH]c(-c2cccc(-c3ccccc3)c2)ncc1O | 400
10 | O=c1[nH]c(-c2ccccc2-c2ccccc2)ncc1O | 1100
11 | N#Cc1ccc(-c2ncc(O)c(=O)[nH]2)cc1 | 520
12 | N#Cc1cccc(-c2ncc(O)c(=O)[nH]2)c1 | 250
13 | O=c1[nH]c(-c2ccc(-c3nnn[nH]3)cc2)ncc1O | 150
14 | O=c1[nH]c(-c2cccc(-c3nnn[nH]3)c2)ncc1O | 480
15 | O=c1[nH]ncc(-c2ccc(F)cc2)c1O | 177000
16 | O=c1[nH]nc(-c2ccc(F)cc2)cc1O | 6000
17 | N#Cc1ccc(-c2cc(O)c(=O)[nH]n2)cc1 | 9300
18 | O=c1[nH]nc(-c2ccc(-c3nnn[nH]3)cc2)cc1O | 3000
